Laboratory results: PubChem BioAssay (NCI)
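All cell lines were grown in 96-well plates and treated with compound for 48 hours. TGI: concentration producing complete growth inhibition.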

How the values were obtained:
Assay in all cases: DTP human tumour cell line panel, 48 h
786-0 renal = test system: 786-0 renal
A549 NSCLC = test system: A549 NSCLC
ACHN renal = test system: ACHN renal
CAKI-1 renal = test system: CAKI-1 renal
CCRF-CEM leukemia = test system: CCRF-CEM leukemia
COLO 205 colon = test system: COLO 205 colon
DLD-1 colon = test system: DLD-1 colon
DMS 273 small cell lung = test system: DMS 273 small cell lung
EKVX NSCLC = test system: EKVX NSCLC
HCC-2998 colon = test system: HCC-2998 colon
HCT-116 colon = test system: HCT-116 colon
HCT-15 colon = test system: HCT-15 colon
HL-60(TB) leukemia = test system: HL-60(TB) leukemia
HOP-62 NSCLC = test system: HOP-62 NSCLC
HT29 colon = test system: HT29 colon
IGROV1 ovarian = test system: IGROV1 ovarian
K-562 leukemia = test system: K-562 leukemia
KM12 colon = test system: KM12 colon
KM20L2 colon = test system: KM20L2 colon
LOX IMVI melanoma = test system: LOX IMVI melanoma
LXFL 529 NSCLC = test system: LXFL 529 NSCLC
M14 melanoma = test system: M14 melanoma
MALME-3M melanoma = test system: MALME-3M melanoma
MOLT-4 leukemia = test system: MOLT-4 leukemia
NCI-H226 lung = test system: NCI-H226 lung
NCI-H23 lung = test system: NCI-H23 lung
NCI-H460 lung = test system: NCI-H460 lung
NCI-H522 lung = test system: NCI-H522 lung
OVCAR-3 ovarian = test system: OVCAR-3 ovarian
OVCAR-4 ovarian = test system: OVCAR-4 ovarian
OVCAR-5 ovarian = test system: OVCAR-5 ovarian
OVCAR-8 ovarian = test system: OVCAR-8 ovarian
RPMI-8226 leukemia = test system: RPMI-8226 leukemia
RXF 393 renal = test system: RXF 393 renal
SF-268 CNS = test system: SF-268 CNS
SF-295 CNS = test system: SF-295 CNS
SF-539 CNS = test system: SF-539 CNS
SK-MEL-2 melanoma = test system: SK-MEL-2 melanoma
SK-MEL-28 melanoma = test system: SK-MEL-28 melanoma
SK-OV-3 ovarian = test system: SK-OV-3 ovarian
SN12C renal = test system: SN12C renal
SNB-19 CNS = test system: SNB-19 CNS
SNB-75 CNS = test system: SNB-75 CNS
SR leukemia = test system: SR leukemia
SW-620 colon = test system: SW-620 colon
TK-10 renal = test system: TK-10 renal
U251 CNS = test system: U251 CNS
UACC-257 melanoma = test system: UACC-257 melanoma
UO-31 renal = test system: UO-31 renal
XF 498 CNS = test system: XF 498 CNS
DMS 114 small cell lung = test system: DMS 114 small cell lung
M19-MEL melanoma = test system: M19-MEL melanoma
SK-MEL-5 melanoma = test system: SK-MEL-5 melanoma
UACC-62 melanoma = test system: UACC-62 melanoma
A498 renal = test system: A498 renal
SNB-78 CNS = test system: SNB-78 CNS
HOP-18 NSCLC = test system: HOP-18 NSCLC
HOP-92 NSCLC = test system: HOP-92 NSCLC

COC(=O)C1=CC2OC1(C)CCC2=O (centres undefined)
TGI (786-0 renal): > 100 µM
TGI (A549 NSCLC): > 100 µM
TGI (ACHN renal): > 100 µM
TGI (CAKI-1 renal): > 100 µM
TGI (CCRF-CEM leukemia): > 100 µM
TGI (COLO 205 colon): > 100 µM
TGI (DLD-1 colon): > 100 µM
TGI (DMS 273 small cell lung): > 100 µM
TGI (EKVX NSCLC): > 100 µM
TGI (HCC-2998 colon): > 100 µM
TGI (HCT-116 colon): > 100 µM
TGI (HCT-15 colon): > 100 µM
TGI (HL-60(TB) leukemia): 80.4 µM
TGI (HOP-62 NSCLC): > 100 µM
TGI (HT29 colon): > 100 µM
TGI (IGROV1 ovarian): > 100 µM
TGI (K-562 leukemia): > 100 µM
TGI (KM12 colon): > 100 µM
TGI (KM20L2 colon): > 100 µM
TGI (LOX IMVI melanoma): > 100 µM
TGI (LXFL 529 NSCLC): > 100 µM
TGI (M14 melanoma): > 100 µM
TGI (MALME-3M melanoma): > 100 µM
TGI (MOLT-4 leukemia): > 100 µM
TGI (NCI-H226 lung): > 100 µM
TGI (NCI-H23 lung): > 100 µM
TGI (NCI-H460 lung): > 100 µM
TGI (NCI-H522 lung): > 100 µM
TGI (OVCAR-3 ovarian): > 100 µM
TGI (OVCAR-4 ovarian): > 100 µM
TGI (OVCAR-5 ovarian): > 100 µM
TGI (OVCAR-8 ovarian): > 100 µM
TGI (RPMI-8226 leukemia): > 100 µM
TGI (RXF 393 renal): > 100 µM
TGI (SF-268 CNS): > 100 µM
TGI (SF-295 CNS): > 100 µM
TGI (SF-539 CNS): > 100 µM
TGI (SK-MEL-2 melanoma): > 100 µM
TGI (SK-MEL-28 melanoma): > 100 µM
TGI (SK-OV-3 ovarian): > 100 µM
TGI (SN12C renal): > 100 µM
TGI (SNB-19 CNS): > 100 µM
TGI (SNB-75 CNS): > 100 µM
TGI (SR leukemia): > 100 µM
TGI (SW-620 colon): > 100 µM
TGI (TK-10 renal): > 100 µM
TGI (U251 CNS): > 100 µM
TGI (UACC-257 melanoma): > 100 µM
TGI (UO-31 renal): > 100 µM
TGI (XF 498 CNS): > 100 µM

Nc1ccc([C@H]2C(=O)N[C@H]3CCC[C@H]32)cc1
TGI (A549 NSCLC): > 100 µM
TGI (CAKI-1 renal): > 100 µM
TGI (CCRF-CEM leukemia): > 100 µM
TGI (COLO 205 colon): > 100 µM
TGI (DMS 114 small cell lung): > 100 µM
TGI (DMS 273 small cell lung): > 100 µM
TGI (EKVX NSCLC): > 100 µM
TGI (HCT-15 colon): > 100 µM
TGI (HL-60(TB) leukemia): > 100 µM
TGI (HT29 colon): > 100 µM
TGI (IGROV1 ovarian): > 100 µM
TGI (K-562 leukemia): > 100 µM
TGI (KM12 colon): > 100 µM
TGI (LOX IMVI melanoma): > 100 µM
TGI (M14 melanoma): > 100 µM
TGI (M19-MEL melanoma): > 100 µM
TGI (MOLT-4 leukemia): > 100 µM
TGI (NCI-H226 lung): > 100 µM
TGI (NCI-H23 lung): > 100 µM
TGI (NCI-H522 lung): > 100 µM
TGI (OVCAR-3 ovarian): > 100 µM
TGI (OVCAR-8 ovarian): > 100 µM
TGI (RPMI-8226 leukemia): > 100 µM
TGI (RXF 393 renal): > 100 µM
TGI (SF-268 CNS): > 100 µM
TGI (SF-295 CNS): > 100 µM
TGI (SF-539 CNS): > 100 µM
TGI (SK-MEL-28 melanoma): > 100 µM
TGI (SK-MEL-5 melanoma): > 100 µM
TGI (SK-OV-3 ovarian): > 100 µM
TGI (SN12C renal): > 100 µM
TGI (SNB-19 CNS): > 100 µM
TGI (SNB-75 CNS): > 100 µM
TGI (SW-620 colon): > 100 µM
TGI (TK-10 renal): > 100 µM
TGI (UACC-257 melanoma): > 100 µM
TGI (UACC-62 melanoma): > 100 µM
TGI (UO-31 renal): > 100 µM
TGI (XF 498 CNS): > 100 µM

CCCCCCC(/C=N/O)C(C)(O)CCC (centres undefined)
TGI (786-0 renal): > 100 µM
TGI (A498 renal): > 100 µM
TGI (A549 NSCLC): > 100 µM
TGI (ACHN renal): > 100 µM
TGI (CAKI-1 renal): > 100 µM
TGI (CCRF-CEM leukemia): > 100 µM
TGI (COLO 205 colon): > 100 µM
TGI (DLD-1 colon): > 100 µM
TGI (DMS 114 small cell lung): > 100 µM
TGI (DMS 273 small cell lung): > 100 µM
TGI (EKVX NSCLC): > 100 µM
TGI (HCC-2998 colon): > 100 µM
TGI (HCT-116 colon): > 100 µM
TGI (HCT-15 colon): > 100 µM
TGI (HL-60(TB) leukemia): > 100 µM
TGI (HOP-62 NSCLC): > 100 µM
TGI (HT29 colon): > 100 µM
TGI (IGROV1 ovarian): > 100 µM
TGI (K-562 leukemia): > 100 µM
TGI (KM12 colon): > 100 µM
TGI (KM20L2 colon): > 100 µM
TGI (LOX IMVI melanoma): > 100 µM
TGI (LXFL 529 NSCLC): > 100 µM
TGI (M14 melanoma): > 100 µM
TGI (M19-MEL melanoma): > 100 µM
TGI (MALME-3M melanoma): > 100 µM
TGI (MOLT-4 leukemia): > 100 µM
TGI (NCI-H226 lung): > 100 µM
TGI (NCI-H23 lung): > 100 µM
TGI (NCI-H460 lung): > 100 µM
TGI (NCI-H522 lung): > 100 µM
TGI (OVCAR-3 ovarian): > 100 µM
TGI (OVCAR-4 ovarian): > 100 µM
TGI (OVCAR-5 ovarian): > 100 µM
TGI (OVCAR-8 ovarian): > 100 µM
TGI (RPMI-8226 leukemia): > 100 µM
TGI (RXF 393 renal): > 100 µM
TGI (SF-268 CNS): > 100 µM
TGI (SF-295 CNS): > 100 µM
TGI (SF-539 CNS): > 100 µM
TGI (SK-MEL-2 melanoma): > 100 µM
TGI (SK-MEL-28 melanoma): > 100 µM
TGI (SK-MEL-5 melanoma): > 100 µM
TGI (SN12C renal): > 100 µM
TGI (SNB-19 CNS): > 100 µM
TGI (SNB-75 CNS): > 100 µM
TGI (SNB-78 CNS): > 100 µM
TGI (SW-620 colon): > 100 µM
TGI (TK-10 renal): > 100 µM
TGI (U251 CNS): > 100 µM
TGI (UACC-257 melanoma): > 100 µM
TGI (UACC-62 melanoma): > 100 µM
TGI (UO-31 renal): > 100 µM
TGI (XF 498 CNS): > 100 µM

N#CC1=C(Cl)NC(Cl)=C(C#N)C1c1c(Cl)cccc1Cl
TGI (786-0 renal): 68.5 µM
TGI (A498 renal): > 100 µM
TGI (A549 NSCLC): 83.6 µM
TGI (ACHN renal): > 100 µM
TGI (CAKI-1 renal): > 100 µM
TGI (CCRF-CEM leukemia): 54.5 µM
TGI (COLO 205 colon): 32.8 µM
TGI (DLD-1 colon): 46.9 µM
TGI (DMS 114 small cell lung): 28.3 µM
TGI (DMS 273 small cell lung): 34.5 µM
TGI (EKVX NSCLC): > 100 µM
TGI (HCC-2998 colon): 47 µM
TGI (HCT-116 colon): 34.3 µM
TGI (HCT-15 colon): 29.7 µM
TGI (HL-60(TB) leukemia): 37.5 µM
TGI (HOP-18 NSCLC): 91.5 µM
TGI (HOP-62 NSCLC): > 100 µM
TGI (HOP-92 NSCLC): 80 µM
TGI (HT29 colon): > 100 µM
TGI (IGROV1 ovarian): > 100 µM
TGI (K-562 leukemia): 46.9 µM
TGI (KM12 colon): 48.6 µM
TGI (KM20L2 colon): 76.9 µM
TGI (LOX IMVI melanoma): 31 µM
TGI (LXFL 529 NSCLC): > 100 µM
TGI (M14 melanoma): > 100 µM
TGI (MALME-3M melanoma): > 100 µM
TGI (MOLT-4 leukemia): > 100 µM
TGI (NCI-H226 lung): > 100 µM
TGI (NCI-H23 lung): > 100 µM
TGI (NCI-H460 lung): 38.3 µM
TGI (NCI-H522 lung): 38.1 µM
TGI (OVCAR-3 ovarian): 64.4 µM
TGI (OVCAR-5 ovarian): > 100 µM
TGI (OVCAR-8 ovarian): 80 µM
TGI (RPMI-8226 leukemia): 46.4 µM
TGI (RXF 393 renal): 59 µM
TGI (SF-268 CNS): 99.6 µM
TGI (SF-295 CNS): > 100 µM
TGI (SF-539 CNS): > 100 µM
TGI (SK-MEL-2 melanoma): > 100 µM
TGI (SK-MEL-28 melanoma): > 100 µM
TGI (SK-MEL-5 melanoma): 39.1 µM
TGI (SK-OV-3 ovarian): 88.8 µM
TGI (SN12C renal): 79.5 µM
TGI (SNB-19 CNS): > 100 µM
TGI (SNB-75 CNS): > 100 µM
TGI (SNB-78 CNS): > 100 µM
TGI (SR leukemia): > 100 µM
TGI (SW-620 colon): 27 µM
TGI (TK-10 renal): > 100 µM
TGI (U251 CNS): 48.5 µM
TGI (UACC-257 melanoma): 50.3 µM
TGI (UACC-62 melanoma): 73.4 µM
TGI (UO-31 renal): > 100 µM
TGI (XF 498 CNS): 35.5 µM
